Measurements as given in ChEMBL document CHEMBL5620417, “N-aryltetrahydroisoquinoline derivatives as HA-CD44 interaction inhibitors: Design, synthesis, computational studies, and antitumor effect” (Eur J Med Chem, 2023).
Active and inactive are the calls of the source. No cut-off for these calls is given here.

Experiments:
MDA-MB-231 [1] = experiment: Antiproliferative activity against human MDA-MB-231 cells assessed as reduction in cell viability incubated for 5 days by PrestoBlue reagent based glo-max fluorescence assay; assay type: functional; settings: MDA-MB-231, 120 h
A549 [2] = experiment: Antiproliferative activity against human A549 cells assessed as reduction in cell viability incubated for 5 days by PrestoBlue reagent based glo-max fluorescence assay; assay type: functional; settings: A549, 120 h
MDA-MB-231 [3] = experiment: Antiproliferative activity against human MDA-MB-231 cells assessed as reduction in cell viability at >=100 uM incubated for 5 days by PrestoBlue reagent based glo-max fluorescence assay; assay type: functional; settings: time 5.0 day
A549 [4] = experiment: Antiproliferative activity against human A549 cells assessed as reduction in cell viability at >=100 uM incubated for 5 days by PrestoBlue reagent based glo-max fluorescence assay; assay type: functional; settings: time 5.0 day
[5] = molecular target: CD44 antigen (Homo sapiens) (UniProt P16070); experiment: Displacement of HA-FITC from CD44 in human MDA-MB-231 cells assessed as decrease in fluorescent intensity at 120 ug/ml incubated for 45 mins by competitive binding assay based flow cytometric analysis; assay type: cell-based; settings: dose 120.0 µg/ml
Sequence of CD44 antigen (Homo sapiens) (P16070 whole entry): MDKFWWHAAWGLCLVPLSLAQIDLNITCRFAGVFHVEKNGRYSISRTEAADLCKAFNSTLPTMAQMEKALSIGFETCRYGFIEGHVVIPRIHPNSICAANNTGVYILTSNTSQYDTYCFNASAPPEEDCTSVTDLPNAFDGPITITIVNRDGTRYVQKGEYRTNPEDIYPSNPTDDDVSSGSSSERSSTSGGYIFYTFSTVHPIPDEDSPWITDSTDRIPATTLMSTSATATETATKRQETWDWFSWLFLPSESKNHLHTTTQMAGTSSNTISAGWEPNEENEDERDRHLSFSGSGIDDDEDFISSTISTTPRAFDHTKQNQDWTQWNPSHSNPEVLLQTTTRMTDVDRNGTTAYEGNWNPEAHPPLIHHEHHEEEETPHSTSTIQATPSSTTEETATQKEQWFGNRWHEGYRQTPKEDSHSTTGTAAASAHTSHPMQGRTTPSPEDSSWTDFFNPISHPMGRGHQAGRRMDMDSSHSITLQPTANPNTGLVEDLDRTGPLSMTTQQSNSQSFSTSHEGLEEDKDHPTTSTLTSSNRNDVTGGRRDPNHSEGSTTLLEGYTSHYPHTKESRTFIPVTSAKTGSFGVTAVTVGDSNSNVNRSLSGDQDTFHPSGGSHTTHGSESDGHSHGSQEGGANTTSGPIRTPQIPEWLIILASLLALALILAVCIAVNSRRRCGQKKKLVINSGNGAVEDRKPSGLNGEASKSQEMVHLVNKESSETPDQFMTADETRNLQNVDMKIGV

MDA-MB-231 [6] = experiment: Antiproliferative activity against human MDA-MB-231 cells assessed as fold change in cell viability incubated for 5 days by PrestoBlue reagent based glo-max fluorescence assay; assay type: functional; settings: time 5 day
MDA-MB-231 [7] = experiment: Antiproliferative activity against human MDA-MB-231 cells assessed as reduction in cell viability incubated for 5 days pre-incubated with anti-CD44 antibody IM7 by PrestoBlue reagent based glo-max fluorescence assay relative to control; assay type: functional; settings: time 5 day
MDA-MB-231 [8] = experiment: Antiproliferative activity against human MDA-MB-231 cells assessed as change in spheroid integrity at 1 uM incubated for 5 days by PrestoBlue reagent based microscopic analysis; assay type: functional, cell-based; settings: time 5.0 day
MDA-MB-231 [9] = experiment: Antiproliferative activity against human MDA-MB-231 cells assessed as increase in dead cell in spheroid at 1 uM incubated for 5 days by PrestoBlue reagent based microscopic analysis; assay type: functional; settings: time 5.0 day
MDA-MB-231 [10] = experiment: Antiproliferative activity against human MDA-MB-231 cells assessed as spheroid disaggregation at 100 uM incubated for 5 days by PrestoBlue reagent based microscopic analysis; assay type: functional, cell-based; settings: time 5.0 day
MDA-MB-231 [11] = experiment: Antiproliferative activity against human MDA-MB-231 cells assessed as decrease in viable cells incubated for 5 days by PrestoBlue reagent based glo-max fluorescence assay; assay type: functional, cell-based; settings: time 5.0 day
MDA-MB-231 [12] = experiment: Antiproliferative activity against human MDA-MB-231 cells assessed as reduction in cell viability at <=70 uM incubated for 5 days by PrestoBlue reagent based glo-max fluorescence assay; assay type: functional; settings: time 5.0 day

EC50 (MDA-MB-231 [1])	EC50 (A549 [2])	SMILES	Activity (A549 [4])	further results
77.1 µM	37.9 µM	Nc1cccc2c1CCN(Cc1ccc(Br)cc1)C2	–	–
–	–	Nc1cccc2c1CN(S(=O)(=O)c1ccc([N+](=O)[O-])cc1)CC2	inactive	Activity (MDA-MB-231 [3]): inactive
77.1 µM	37.9 µM	Brc1ccc(CN2CCc3ccccc3C2)cc1	–	–
–	–	COc1cc2c(cc1OC)CN(S(=O)(=O)c1ccc(C)cc1)CC2	inactive	Activity (MDA-MB-231 [3]): inactive
77.1 µM	37.9 µM	Nc1cccc2c1CN(Cc1ccc(Br)cc1)CC2	–	–
–	–	Cc1ccc(S(=O)(=O)N2CCc3ccccc3C2)cc1	inactive	Activity (MDA-MB-231 [3]): inactive
–	–	Cc1ccc(S(=O)(=O)N2CCc3c(N)cccc3C2)cc1	inactive	Activity (MDA-MB-231 [3]): inactive
31.5 µM	37 µM	FC(F)(F)c1ccc(CNc2cccc3c2CN(Cc2ccc(C(F)(F)F)cc2)CC3)cc1	–	–
61.8 µM	–	O=[N+]([O-])c1ccc(S(=O)(=O)N2CCc3ccccc3C2)cc1	inactive	–
52.1 µM	34.7 µM	Nc1cccc2c1CN(Cc1ccc(C(F)(F)F)cc1)CC2	–	–
52.1 µM	34.7 µM	COc1cc2c(cc1OC)CN(Cc1ccc(C(F)(F)F)cc1)CC2	–	–
77.1 µM	37.9 µM	COc1cc2c(cc1OC)CN(Cc1ccc(Br)cc1)CC2	–	–
8 µM	–	CC(=O)CCN1CCc2ccccc2C1	–	–
52.1 µM	34.7 µM	Nc1cccc2c1CCN(Cc1ccc(C(F)(F)F)cc1)C2	–	–
1.77 µM	–	COc1cc(CN2CCc3c(Br)cccc3C2)cc(OC)c1OC	–	Activity [5]: Active; fold change (FC) (MDA-MB-231 [6]): 1.3; Activity (MDA-MB-231 [7]): 24%
0.59 µM	–	COc1cc(CN2CCc3c(O)cccc3C2)cc(OC)c1OC	–	Activity [5]: Active; fold change (FC) (MDA-MB-231 [6]): 4; Activity (MDA-MB-231 [7]): 21%; Activity (MDA-MB-231 [8]): Active; Activity (MDA-MB-231 [9]): Active; Activity (MDA-MB-231 [10]): Active; Activity (MDA-MB-231 [11]): Dose-Dependent Effect
–	–	Cc1ccc(S(=O)(=O)N2CCc3cccc(N)c3C2)cc1	inactive	Activity (MDA-MB-231 [3]): inactive
19.8 µM	48.2 µM	COc1cc(CN2CCc3ccccc3C2)cc(OC)c1OC	–	Activity (MDA-MB-231 [12]): Active
2.31 µM	3.48 µM	COc1cc(CN2CCc3c(N)cccc3C2)cc(OC)c1OC	–	Activity (MDA-MB-231 [12]): Active; Activity [5]: Active; Activity (MDA-MB-231 [7]): 13%
70.3 µM	77.7 µM	COc1cc2c(cc1OC)CN(Cc1cc(OC)c(OC)c(OC)c1)CC2	–	Activity (MDA-MB-231 [12]): Active
–	–	COc1cc2c(cc1OC)CN(S(=O)(=O)c1ccc([N+](=O)[O-])cc1)CC2	inactive	Activity (MDA-MB-231 [3]): inactive
–	–	Nc1cccc2c1CCN(S(=O)(=O)c1ccc([N+](=O)[O-])cc1)C2	inactive	Activity (MDA-MB-231 [3]): inactive
52.1 µM	34.7 µM	FC(F)(F)c1ccc(CN2CCc3ccccc3C2)cc1	–	–
57.4 µM	72.4 µM	COc1cc(CN2CCc3cccc(N)c3C2)cc(OC)c1OC	–	Activity (MDA-MB-231 [12]): Active
